Experimental data taken from patent US20040162221A1, “Pyrazole derivatives and herbicides containing the same” (IDEMITSU KOSAN CO., LTD., priority 1998, published 2004).

What was measured:
redroot pigweed [1] = experiment: Upland post-emergence treatment test, redroot pigweed; format: in vivo, redroot pigweed (Amaranthus retroflexus); conditions: post-emergence spray at 3-4 leaf stage, 80 g/ha, 30th day after treatment, greenhouse
From the text: (§1) 97 Parts by weight of talc (trade name: Zeaklite, supplied by Zeaklite Industry) as a carrier, 1.5 parts by weight of alkylarylsulfonic acid salt (trade name: Neoplex, supplied by Kao-Atlas K.K.) as a surfactant and 1.5 parts by weight of a nonionic and anionic surfactant (trade names Sorpol 800A, supplied by Toho Chemical Co., Ltd.) were uniformly pulverized and mixed to prepare a carrier for a wettable powder.
(§2) 90 Parts by weight of the above carrier for a wettable powder and 10 parts by weight of one of the compounds of the present invention were uniformly pulverized and mixed to obtain herbicides. Further, in Comparative Herbicide Examples, comparative herbicides were also prepared from the following compounds (A) and (B) in the same manner.
(§3) Herbicidal efficacy and phytotoxicity to crops were determined on the basis of the ratio of remaining plant weight to plant weight in non-treated plot=(remaining plant weight in treated plot/plant weight in non-treated-plot)×100. The ratings were applied to the following biological tests.
(§4) Seeds of weeds velvetleaf, redroot pigweed, common ragweed, green foxtail and large crabgrass and seeds of corn were sown in 1/5,000-are Wagner pots filled with upland soil, and covered with upland soil. The seeds were grown in a greenhouse, and at the stage of 3˜4 leaves of these plants, a predetermined amount of the herbicide prepared in the above (1) was suspended in water, and the suspension was uniformly sprayed onto leaf and stalk portions at a rate of 2,000 liters/hectare. Then, the plants were grown in the greenhouse, and on the 30th day after the treatment, the herbicide was evaluated for herbicidal efficacy and phytotoxicity to the corn on the basis of the ratings shown in (2).

velvetleaf [2] = experiment: Upland post-emergence treatment test, velvetleaf; format: in vivo, velvetleaf (Abutilon theophrasti); conditions: post-emergence spray at 3-4 leaf stage, 80 g/ha, 30th day after treatment, greenhouse
From the text: as §1, §2, §3, §4

green foxtail [3] = experiment: Upland post-emergence treatment test, green foxtail; format: in vivo, green foxtail (Setaria viridis); conditions: post-emergence spray at 3-4 leaf stage, 80 g/ha, 30th day after treatment, greenhouse
From the text: as §1, §2, §3, §4

corn [4] = experiment: Upland post-emergence treatment test, phytotoxicity to corn; format: in vivo; conditions: post-emergence spray at 3-4 leaf stage, 80 g/ha, 30th day after treatment, greenhouse
From the text: as §1, §2, §3, §4

common ragweed [5] = experiment: Upland post-emergence treatment test, common ragweed; format: in vivo, common ragweed (Ambrosia artemisilfolia); conditions: post-emergence spray at 3-4 leaf stage, 80 g/ha, 30th day after treatment, greenhouse
From the text: as §1, §2, §3, §4

large crabgrass [6] = experiment: Upland post-emergence treatment test, large crabgrass; format: in vivo; conditions: post-emergence spray at 3-4 leaf stage, 80 g/ha, 30th day after treatment, greenhouse
From the text: as §1, §2, §3, §4

corn [7] = experiment: Upland pre-emergence treatment test, phytotoxicity to corn; format: in vivo; conditions: pre-emergence soil surface spray, 80 g/ha, 20th day after treatment, greenhouse
From the text: as §1, §2, §3
(§5) Seeds of weeds such as velvetleaf, common lambsquaters, redroot pigweed, common ragweed, green foxtail and large crabgrass and seeds of corn were sown in 1/5,000-are Wagner pots filled with upland soil, and covered with upland soil. Then, a predetermined amount of the herbicide prepared in the above (1) was suspended in water, and the suspension was uniformly sprayed onto the soil surface at a rate of 2,000 liters/hectare. Then, the seeds were grown in a greenhouse, and on the 20th day after the treatment, the herbicide was evaluated for herbicidal efficacy and phytotoxicity to corn on the basis of the ratings shown in (2).

common ragweed [8] = experiment: Upland pre-emergence treatment test, common ragweed; format: in vivo, common ragweed (Ambrosia artemisilfolia); conditions: pre-emergence soil surface spray, 80 g/ha, 20th day after treatment, greenhouse
From the text: as §1, §2, §3, §5

velvetleaf [9] = experiment: Upland pre-emergence treatment test, velvetleaf; format: in vivo, velvetleaf (Abutilon theophrasti); conditions: pre-emergence soil surface spray, 80 g/ha, 20th day after treatment, greenhouse
From the text: as §1, §2, §3, §5

green foxtail [10] = experiment: Upland pre-emergence treatment test, green foxtail; format: in vivo, green foxtail (Setaria viridis); conditions: pre-emergence soil surface spray, 80 g/ha, 20th day after treatment, greenhouse
From the text: as §1, §2, §3, §5

large crabgrass [11] = experiment: Upland pre-emergence treatment test, large crabgrass; format: in vivo; conditions: pre-emergence soil surface spray, 80 g/ha, 20th day after treatment, greenhouse
From the text: as §1, §2, §3, §5

common lambsquaters = experiment: Upland pre-emergence treatment test, common lambsquaters; format: in vivo, common lambsquaters (Chenopodium album); conditions: pre-emergence soil surface spray, 80 g/ha, 20th day after treatment, greenhouse
From the text: as §1, §2, §3, §5

redroot pigweed [12] = experiment: Upland pre-emergence treatment test, redroot pigweed; format: in vivo, redroot pigweed (Amaranthus retroflexus); conditions: pre-emergence soil surface spray, 80 g/ha, 20th day after treatment, greenhouse
From the text: as §1, §2, §3, §5
Also: ranges in brackets are in %.

Compound | Herbicidal Efficacy CC = Redroot Pigweed (redroot pigweed [1]) | Herbicidal Efficacy AA = Velvetleaf (velvetleaf [2]) | Herbicidal Efficacy EE = Green foxtail (green foxtail [3]) | Phytotoxicity Corn (corn [4]) | Herbicidal Efficacy DD = Common ragweed (common ragweed [5]) | Herbicidal Efficacy FF = Large crabgrass (large crabgrass [6]) | Phytotoxicity Corn (corn [7]) | Herbicidal Efficacy DD = Common ragweed (common ragweed [8]) | Herbicidal Efficacy AA = Velvetleaf (velvetleaf [9]) | Herbicidal Efficacy EE = Green foxtail (green foxtail [10]) | Herbicidal Efficacy FF = Large crabgrass (large crabgrass [11]) | Herbicidal Efficacy BB = Common lambsquaters (common lambsquaters) | Herbicidal Efficacy CC = Rough Pigweed (redroot pigweed [12])
Cc1c(C(=O)c2cnn(C)c2OS(=O)(=O)C(C)C)ccc2c1C(C)(C)CS2(=O)=O [Compound 5] | 5 (0) | 5 (0) | 5 (0) | − (100) | 5 (0) | 5 (0) | – | – | – | – | – | – | –
Cc1ccc(C(=O)Oc2c(C(=O)c3ccc4c(c3C)C(C)(C)CS4(=O)=O)cnn2C)cc1 [Compound 42] | 5 (0) | 5 (0) | 5 (0) | − (100) | 5 (0) | 5 (0) | – | – | – | – | – | – | –
Cc1c(C(=O)c2cnn(C)c2OS(=O)(=O)CC(C)C)ccc2c1C(C)(C)CS2(=O)=O [Compound 8] | 5 (0) | 5 (0) | 5 (0) | − (100) | 5 (0) | 5 (0) | – | – | – | – | – | – | –
CC(C)N.Cc1c(C(=O)c2cnn(C)c2O)ccc2c1C(C)(C)CS2(=O)=O [Compound 51] | 5 (0) | 5 (0) | 5 (0) | − (100) | 5 (0) | 5 (0) | – | – | – | – | – | – | –
Cc1c(C(=O)c2cnn(C)c2OS(=O)(=O)c2ccc(Cl)cc2)ccc2c1C(C)(C)CS2(=O)=O [Compound 21] | 5 (0) | 5 (0) | 5 (0) | − (100) | 5 (0) | 5 (0) | – | – | – | – | – | – | –
Cc1c(C(=O)c2cnn(C)c2OS(=O)(=O)c2ccc(Cl)cc2Cl)ccc2c1C(C)(C)CS2(=O)=O [Compound 24] | 5 (0) | 5 (0) | 5 (0) | − (100) | 5 (0) | 5 (0) | – | – | – | – | – | – | –
CCCCS(=O)(=O)Oc1c(C(=O)c2ccc3c(c2C)C(C)(C)CS3(=O)=O)cnn1C [Compound 7] | 5 (0) | 5 (0) | 5 (0) | − (100) | 5 (0) | 5 (0) | – | – | – | – | – | – | –
Cc1c(C(=O)c2cnn(C)c2OS(=O)(=O)C2CC2)ccc2c1C(C)(C)CS2(=O)=O [Compound 6] | 5 (0) | 5 (0) | 5 (0) | − (100) | 5 (0) | 5 (0) | – | – | – | – | – | – | –
CCc1ccc(S(=O)(=O)Oc2c(C(=O)c3ccc4c(c3C)C(C)(C)CS4(=O)=O)cnn2C)cc1 [Compound 19] | 5 (0) | 5 (0) | 5 (0) | − (100) | 5 (0) | 5 (0) | – | – | – | – | – | – | –
Cc1c(C(=O)c2cnn(C)c2OS(=O)(=O)CCl)ccc2c1C(C)(C)CS2(=O)=O [Compound 13] | 5 (0) | 5 (0) | 5 (0) | − (100) | 5 (0) | 5 (0) | – | – | – | – | – | – | –
Cc1c(C(=O)c2cnn(C)c2OS(=O)(=O)c2ccc([N+](=O)[O-])cc2)ccc2c1C(C)(C)CS2(=O)=O [Compound 26] | 5 (0) | 5 (0) | 5 (0) | − (100) | 5 (0) | 5 (0) | – | – | – | – | – | – | –
CCC(=O)Oc1c(C(=O)c2ccc3c(c2C)C(C)(C)CS3(=O)=O)cnn1C [Compound 30, 5-(1′-methyl-5′-n-propionyloxypyrazol-4′-yl)carbonyl-3,3,4-trimethyl-2,3-dihydrobenzothiophene-1,1-dioxide] | – | – | – | – | – | – | − (100) | 5 (0) | 4 (1-20) | 5 (0) | 5 (0) | 5 (0) | 5 (0)
CCC(=O)Oc1c(C(=O)c2ccc3c(c2C)C(C)(C)CS3(=O)=O)cnn1C [Compound 29] | 5 (0) | 5 (0) | 5 (0) | − (100) | 5 (0) | 5 (0) | – | – | – | – | – | – | –
Cc1cc(C)c(S(=O)(=O)Oc2c(C(=O)c3ccc4c(c3C)C(C)(C)CS4(=O)=O)cnn2C)c(C)c1 [Compound 27] | 5 (0) | 5 (0) | 5 (0) | − (100) | 5 (0) | 5 (0) | – | – | – | – | – | – | –
Cc1c(C(=O)c2cnn(C)c2OS(=O)(=O)CCCCl)ccc2c1C(C)(C)CS2(=O)=O [Compound 14] | 5 (0) | 5 (0) | 5 (0) | − (100) | 5 (0) | 5 (0) | – | – | – | – | – | – | –
Cc1c(C(=O)c2cnn(C)c2OS(=O)(=O)c2ccccc2)ccc2c1C(C)(C)CS2(=O)=O [Compound 15] | 5 (0) | 5 (0) | 5 (0) | − (100) | 5 (0) | 5 (0) | – | – | – | – | – | – | –
COc1ccc(S(=O)(=O)Oc2c(C(=O)c3ccc4c(c3C)C(C)(C)CS4(=O)=O)cnn2C)cc1 [Compound 25] | 5 (0) | 5 (0) | 5 (0) | − (100) | 5 (0) | 5 (0) | – | – | – | – | – | – | –
CCCCCCCCS(=O)(=O)Oc1c(C(=O)c2ccc3c(c2C)C(C)(C)CS3(=O)=O)cnn1C [Compound 12] | 5 (0) | 5 (0) | 5 (0) | − (100) | 5 (0) | 5 (0) | – | – | – | – | – | – | –
CCS(=O)(=O)Oc1c(C(=O)c2ccc3c(c2C)C(C)(C)CS3(=O)=O)cnn1C [Compound 3] | 5 (0) | 5 (0) | 5 (0) | – | 5 (0) | 5 (0) | – | 5 (0) | 5 (0) | 5 (0) | 5 (0) | 5 (0) | 5 (0)
